Experiment [1] concerns the target unphosphorylated c-KIT kinase (uKIT, Seq. ID no. 2) (Homo sapiens (Human), UniProt P10721). As to the kind of experiment: uKit kinase assay (coupled pyruvate kinase/lactate dehydrogenase). It is filed as biochemical. Particulars: enzymatic assay, ATP 2000 μM. A digest of the protocol:
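The read-out was a continuous PK/LDH-coupled decrease in NADH absorbance at 340 nm, monitored at 30 °C over 4 h. IC50 came from % inhibition based on rates at 3–4 h. The GST-tagged unphosphorylated KIT (12 nM) was used with polyE4Y substrate, 2000 μM ATP and 10 mM Mg2+ at pH 7.5, with serially diluted compound.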

For another experiment, the system named is osteoclast precursors. Briefly: Osteoclast tartrate-resistant acid phosphatase assay. It is filed as cell-based. The following applies: Osteoclast, 7-14 days, RANKL and M-CSF.
For experiment [2], the target named is unphosphorylated c-FMS kinase (uFMS, Seq. ID no. 1) (Homo sapiens (Human), UniProt P07333). As to the kind of experiment: uFMS kinase assay (ADP production coupled to pyruvate kinase/lactate dehydrogenase). It is filed as biochemical. A digest of the protocol: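 Unphosphorylated FMS (10 nM) with polyE4Y 1 mg/mL and 500 μM ATP in 90 mM Tris pH 7.5, 10 mM MgCl2, 0.2% octyl-glucoside, 1% DMSO. ADP formation was coupled via pyruvate kinase/LDH to NADH oxidation, followed at A340 for 4 h at 30° C.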
Sequence of unphosphorylated c-FMS kinase (uFMS, Seq. ID no. 1) (P07333 538-972): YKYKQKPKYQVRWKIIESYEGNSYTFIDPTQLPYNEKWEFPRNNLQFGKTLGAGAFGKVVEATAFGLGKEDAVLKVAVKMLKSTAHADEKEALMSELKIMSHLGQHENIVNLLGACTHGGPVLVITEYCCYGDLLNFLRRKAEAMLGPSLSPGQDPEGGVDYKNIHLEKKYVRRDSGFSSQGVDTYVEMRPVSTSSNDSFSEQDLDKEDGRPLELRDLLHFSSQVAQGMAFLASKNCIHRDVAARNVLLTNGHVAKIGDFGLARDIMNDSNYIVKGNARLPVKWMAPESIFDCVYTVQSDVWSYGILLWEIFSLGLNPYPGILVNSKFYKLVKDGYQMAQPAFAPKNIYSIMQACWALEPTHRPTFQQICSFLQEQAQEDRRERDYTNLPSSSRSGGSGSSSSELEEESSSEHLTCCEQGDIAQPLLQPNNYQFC

In experiment [3] the target is unphosphorylated PDGFRβ kinase (uPDGFRβ, Seq. ID No. 3) (Homo sapiens (Human), UniProt P09619). Briefly: Unphosphorylated PDGFRβ kinase assay (coupled pyruvate kinase/lactate dehydrogenase). The following applies: enzymatic assay, ATP 500 μM. It is filed as biochemical. A digest of the protocol:
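Construct residues 557-1106, unphosphorylated, 15.7 nM, with poly E4Y 2.5 mg/mL and 500 μM ATP, Tris pH 7.5, 1% DMSO, 30 °C. ADP coupled to NADH oxidation via PK/LDH, A340 followed 4 h; rate from 1.5-2.5 h versus no-compound control, IC50 from percent-inhibition series.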

A further experiment relates to M-NFS-60 cells. Briefly: M-NFS-60 cell proliferation assay (resazurin). The format is cell-based. Particulars: 67 h incubation. A digest of the protocol: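 Cells kept in medium containing 20 ng/mL mouse recombinant M-CSF. Fluorescence was read at ex 540/em 600 nm, and IC50 was fitted from percent inhibition across a range of inhibitor concentrations.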
(In general: Resazurin is reduced to fluorescent resorufin, in cell work by metabolically active cells.)

The target of experiment [4] is c-FMS kinase in THP-1 cells (Homo sapiens (Human), UniProt P07333). As to the kind of experiment: Phospho-FMS ELISA assay in THP-1 cells. The format is cell-based. As to the method: THP-1 cells (catalog #TIB-202) were obtained from the ATCC. Briefly, cells were grown in RPMI 1640 supplemented with 10% characterized fetal bovine serum, 1% sodium pyruvate, 1% Penicillin-Streptomycin-Glutamine (PSG) and 55 uM 2-mercaptoethanol (Invitrogen, Carlsbad, Calif.) at 37 degrees Celsius, 5% CO2, 95% humidity. Cells were allowed to expand until reaching 70-95% confluency at which point they were subcultured or harvested for assay use.
Sequence of c-FMS kinase in THP-1 cells (P07333 20-972): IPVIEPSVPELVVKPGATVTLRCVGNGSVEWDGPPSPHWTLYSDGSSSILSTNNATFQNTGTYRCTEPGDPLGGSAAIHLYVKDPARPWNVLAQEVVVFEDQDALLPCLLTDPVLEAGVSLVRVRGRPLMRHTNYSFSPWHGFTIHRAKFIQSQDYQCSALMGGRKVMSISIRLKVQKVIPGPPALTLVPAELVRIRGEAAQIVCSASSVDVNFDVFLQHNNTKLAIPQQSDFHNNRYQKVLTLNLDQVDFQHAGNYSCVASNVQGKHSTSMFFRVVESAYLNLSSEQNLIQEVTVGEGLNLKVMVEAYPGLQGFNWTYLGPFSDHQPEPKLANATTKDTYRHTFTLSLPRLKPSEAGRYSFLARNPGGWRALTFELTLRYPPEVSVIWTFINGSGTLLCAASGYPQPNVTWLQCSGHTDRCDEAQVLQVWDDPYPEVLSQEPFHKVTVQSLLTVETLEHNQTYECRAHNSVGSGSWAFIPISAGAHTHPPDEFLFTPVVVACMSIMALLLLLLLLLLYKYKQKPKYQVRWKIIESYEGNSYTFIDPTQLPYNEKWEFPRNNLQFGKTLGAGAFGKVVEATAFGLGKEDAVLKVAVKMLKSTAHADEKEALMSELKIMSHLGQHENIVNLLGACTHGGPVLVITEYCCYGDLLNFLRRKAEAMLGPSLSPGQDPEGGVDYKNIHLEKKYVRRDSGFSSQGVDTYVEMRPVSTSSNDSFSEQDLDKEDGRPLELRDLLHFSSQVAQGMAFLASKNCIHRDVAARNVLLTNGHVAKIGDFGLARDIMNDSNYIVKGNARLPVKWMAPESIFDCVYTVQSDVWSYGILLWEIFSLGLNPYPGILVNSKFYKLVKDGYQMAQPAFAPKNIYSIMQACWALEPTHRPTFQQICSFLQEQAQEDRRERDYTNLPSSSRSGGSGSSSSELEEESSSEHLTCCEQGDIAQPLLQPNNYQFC
A serial dilution of test compound was diluted 1:100 in assay medium (RPMI 1640 supplemented with 10% characterized fetal bovine serum) in a 96 well black clear bottom plate (Corning, Corning, N.Y.). In a separate 96 well black clear bottom plate, one hundred and fifty thousand THP-1 cells were added per well in 100 μL in assay medium. Fifty microliters of diluted compound was then added to the cells. Plates were incubated for 4 hours at 37 degrees Celsius, 5% CO2, 95% humidity. At the end of the incubation period, cells were stimulated with 50 μL of a 100 nM solution of recombinant human M-CSF (catalog #216-MC, R & D Systems, Minneapolis, Minn.) in assay medium and the plate was incubated for 5 minutes at 37 degrees Celsius, 5% CO2, 95% humidity. Lysates were prepared and used to perform the phospho-FMS ELISA as described by the manufacturer (catalog #DYC3268, R & D Systems, Minneapolis, Minn.). GraphPad Prism was used to calculate IC50 values obtained from data generated from the ELISA assay.
(In general: In an ELISA, binding on a coated surface is turned into a signal by an enzyme label.)

The target of another experiment is cMET kinase (Homo sapiens (Human), UniProt P08581). Briefly: cMET kinase inhibition (Table 4). The format is biochemical.
In another experiment the target is KDR kinase (Homo sapiens (Human), UniProt P35968). Briefly: KDR kinase inhibition (Table 4). It is filed as biochemical.
Sequence of KDR kinase (P35968 20-1356): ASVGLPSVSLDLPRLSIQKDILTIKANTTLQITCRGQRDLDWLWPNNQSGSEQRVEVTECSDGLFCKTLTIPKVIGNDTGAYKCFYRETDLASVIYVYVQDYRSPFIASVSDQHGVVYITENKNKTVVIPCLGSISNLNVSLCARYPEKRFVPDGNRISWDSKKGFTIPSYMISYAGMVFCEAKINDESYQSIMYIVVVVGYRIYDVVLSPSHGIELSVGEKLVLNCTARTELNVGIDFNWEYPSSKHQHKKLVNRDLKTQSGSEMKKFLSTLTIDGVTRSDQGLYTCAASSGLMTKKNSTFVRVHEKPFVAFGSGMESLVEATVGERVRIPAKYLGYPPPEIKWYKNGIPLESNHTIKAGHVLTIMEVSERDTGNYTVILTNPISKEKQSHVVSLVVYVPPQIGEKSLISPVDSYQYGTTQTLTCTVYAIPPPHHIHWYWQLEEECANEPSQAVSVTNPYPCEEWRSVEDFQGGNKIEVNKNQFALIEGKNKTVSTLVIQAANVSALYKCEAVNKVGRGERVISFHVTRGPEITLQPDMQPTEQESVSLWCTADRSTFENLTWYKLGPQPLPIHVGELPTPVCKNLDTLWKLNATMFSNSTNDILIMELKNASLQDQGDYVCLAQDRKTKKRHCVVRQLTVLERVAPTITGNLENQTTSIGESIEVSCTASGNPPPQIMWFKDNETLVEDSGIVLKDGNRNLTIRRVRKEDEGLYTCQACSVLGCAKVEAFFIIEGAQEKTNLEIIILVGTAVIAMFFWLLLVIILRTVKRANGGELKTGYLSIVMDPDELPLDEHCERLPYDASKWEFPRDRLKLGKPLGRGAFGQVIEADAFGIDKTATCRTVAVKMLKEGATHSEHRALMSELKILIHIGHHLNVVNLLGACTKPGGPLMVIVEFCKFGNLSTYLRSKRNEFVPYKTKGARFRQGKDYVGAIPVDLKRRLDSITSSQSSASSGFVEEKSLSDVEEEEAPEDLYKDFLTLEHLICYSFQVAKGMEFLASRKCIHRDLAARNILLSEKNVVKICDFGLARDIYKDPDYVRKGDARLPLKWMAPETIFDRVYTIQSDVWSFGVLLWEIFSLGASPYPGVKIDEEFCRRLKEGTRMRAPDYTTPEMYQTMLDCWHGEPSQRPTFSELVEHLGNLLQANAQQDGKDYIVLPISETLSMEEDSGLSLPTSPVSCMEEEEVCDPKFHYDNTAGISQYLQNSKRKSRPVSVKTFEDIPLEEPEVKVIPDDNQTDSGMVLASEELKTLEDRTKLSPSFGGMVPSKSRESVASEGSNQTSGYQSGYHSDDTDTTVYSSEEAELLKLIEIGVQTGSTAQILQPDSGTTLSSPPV
Setting [5] is: uFMS, enzymatic assay, ATP 500 μM.
Setting [6] is: enzymatic assay, ATP 500 μM, read-out: uFMS.
[7] abbreviates: 4 h compound, M-CSF stimulation 5 min, read-out: pFMS inhibition in THP-1 cells.

Read-outs that look alike come from different tables or passages of the source.

Sequence of unphosphorylated c-KIT kinase (uKIT, Seq. ID no. 2) (P10721 other isoform, or with tags, fused parts or gaps): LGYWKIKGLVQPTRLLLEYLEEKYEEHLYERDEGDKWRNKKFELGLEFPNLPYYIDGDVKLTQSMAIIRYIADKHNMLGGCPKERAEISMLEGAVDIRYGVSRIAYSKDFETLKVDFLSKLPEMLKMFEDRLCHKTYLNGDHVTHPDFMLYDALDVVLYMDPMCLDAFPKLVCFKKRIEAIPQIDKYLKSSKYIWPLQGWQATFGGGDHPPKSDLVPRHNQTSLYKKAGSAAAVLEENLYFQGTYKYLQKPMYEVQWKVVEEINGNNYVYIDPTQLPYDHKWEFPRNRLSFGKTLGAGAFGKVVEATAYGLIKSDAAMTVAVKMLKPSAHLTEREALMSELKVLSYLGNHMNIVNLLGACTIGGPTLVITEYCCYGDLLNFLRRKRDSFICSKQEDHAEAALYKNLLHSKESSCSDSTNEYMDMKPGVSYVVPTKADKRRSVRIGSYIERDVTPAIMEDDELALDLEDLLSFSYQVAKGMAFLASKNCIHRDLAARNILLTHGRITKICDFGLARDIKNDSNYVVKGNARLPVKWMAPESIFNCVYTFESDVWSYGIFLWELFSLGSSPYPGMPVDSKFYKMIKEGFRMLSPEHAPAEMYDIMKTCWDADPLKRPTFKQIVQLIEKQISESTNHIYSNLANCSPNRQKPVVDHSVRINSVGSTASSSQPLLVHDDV
Sequence of unphosphorylated PDGFRβ kinase (uPDGFRβ, Seq. ID No. 3) (P09619 557-1106): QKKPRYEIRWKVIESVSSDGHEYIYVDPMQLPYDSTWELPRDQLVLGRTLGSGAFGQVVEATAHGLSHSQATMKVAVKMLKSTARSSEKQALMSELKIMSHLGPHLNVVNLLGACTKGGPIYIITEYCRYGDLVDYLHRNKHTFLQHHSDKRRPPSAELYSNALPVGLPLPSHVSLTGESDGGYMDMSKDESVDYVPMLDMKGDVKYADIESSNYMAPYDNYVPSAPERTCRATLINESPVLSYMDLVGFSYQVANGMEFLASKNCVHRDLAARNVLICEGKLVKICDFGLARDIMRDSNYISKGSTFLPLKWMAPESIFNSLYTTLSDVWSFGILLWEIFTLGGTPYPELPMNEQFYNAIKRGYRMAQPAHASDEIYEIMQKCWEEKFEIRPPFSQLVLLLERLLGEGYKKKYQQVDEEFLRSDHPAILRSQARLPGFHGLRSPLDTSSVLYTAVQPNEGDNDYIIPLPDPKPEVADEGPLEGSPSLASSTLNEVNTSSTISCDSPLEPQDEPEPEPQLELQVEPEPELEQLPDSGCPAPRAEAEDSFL

Turning to `Cc1nc(NC(=O)N2CCN(C3CCOC3)C2=O)ccc1Oc1ccnc(-c2cnn(C)c2)c1` (stereo in doubt) [Example 23, (S)—N-(6-methyl-5-((2-(1-methyl-1H-pyrazol-4-yl)pyridin-4-yl)oxy)pyridin-2-yl)-2-oxo-3-(tetrahydrofuran-3-yl)imidazolidine-1-carboxamide], the IC50 in experiment [1] was over 1000 nM; with osteoclast precursors, 10 to 100 nM; in experiment [2] (setting [5]), 10 to 100 nM; in experiment [3], over 1000 nM; in the experiment on M-NFS-60 cells it was 10 to 100 nM; in experiment [4], 10 to 100 nM.
`Cn1cc(-c2cc(Oc3ccc(NC(=O)N4CCN(C5CCCCC5)C4=O)nc3)ccn2)cn1` [Example 15, 3-cyclohexyl-N-(5-((2-(1-methyl-1H-pyrazol-4-yl)pyridin-4-yl)oxy)pyridin-2-yl)-2-oxoimidazolidine-1-carboxamide]: the IC50 on cMET kinase was 370 nM; with osteoclast precursors it was under 10 nM; in experiment [2] (Table 4, read-out: c-FMS IC50), 3 nM; in experiment [2] (setting [6]) it was under 10 nM; in experiment [3], 10 to 100 nM; on KDR kinase, 670 nM. Moreover, the IC50 in the experiment with M-NFS-60 cells was under 10 nM; in experiment [4] (setting [7]) it was 10 to 100 nM.
With `[2H]C([2H])([2H])n1cc(-c2cc(Oc3ccc(NC(=O)N4CCN([C@@H]5CCOC5)C4=O)nc3C)ccn2)cn1` [Example 37, (R)—N-(6-methyl-5-((2-(1-(trideuteromethyl)-1H-pyrazol-4-yl)pyridin-4-yl)oxy)pyridin-2-yl)-2-oxo-3-(tetrahydrofuran-3-yl)imidazolidine-1-carboxamide], the IC50 in experiment [1] was 100 to 1000 nM; with osteoclast precursors, 10 to 100 nM; in experiment [2] (setting [5]), 10 to 100 nM; in experiment [3], over 1000 nM; in the experiment with M-NFS-60 cells it was 10 to 100 nM; in experiment [4], 10 to 100 nM.
`CNC(=O)c1cc(Oc2ccc(NC(=O)N3CCN(C(C)(C)C)C3=O)nc2)ccn1` [Example 90, 4-((6-(3-(tert-butyl)-2-oxoimidazolidine-1-carboxamido)pyridin-3-yl)oxy)-N-methylpicolinamide]: the IC50 against cMET kinase was over 5000 nM; in experiment [1] it was 10 to 100 nM; in the experiment on osteoclast precursors, 10 to 100 nM; in experiment [2] (Table 4, read-out: c-FMS IC50), 5 nM; in experiment [2] (setting [6]), under 10 nM; in experiment [3], 10 to 100 nM. In addition, the IC50 is 3300 nM against KDR kinase and 10 to 100 nM in the experiment with M-NFS-60 cells.
On to `Cn1cc(-c2cc(Oc3cc(F)c(NC(=O)N4CCN(C5CCOCC5)C4=O)cc3F)ccn2)cn1` [Example 91, N-(2,5-difluoro-4-((2-(1-methyl-1H-pyrazol-4-yl)pyridin-4-yl)oxy)phenyl)-2-oxo-3-(tetrahydro-2H-pyran-4-yl)imidazolidine-1-carboxamide], for which the IC50 against cMET kinase was over 5000 nM; in experiment [1] it was 100 to 1000 nM; with osteoclast precursors it was 10 to 100 nM; in experiment [2] (Table 4, read-out: c-FMS IC50), 7 nM; in experiment [2] (setting [6]), under 10 nM; against KDR kinase, over 3300 nM. In addition, the IC50 (in the experiment on M-NFS-60 cells; in experiment [4] (setting [7])) was 10 to 100 nM in each case.
On to `CN(C)C(=O)Nc1cc(Oc2cc(F)c(NC(=O)N3CCN(C4CCOCC4)C3=O)cc2Cl)ccn1` [Example 101, N-(5-chloro-4-((2-(3,3-dimethylureido)pyridin-4-yl)oxy)-2-fluorophenyl)-2-oxo-3-(tetrahydro-2H-pyran-4-yl)imidazolidine-1-carboxamide], for which the IC50 is 4000 nM against cMET kinase; under 10 nM in the experiment with osteoclast precursors; 8 nM in experiment [2] (Table 4, read-out: c-FMS IC50); under 10 nM in experiment [2] (setting [6]); 100 to 1000 nM in experiment [3]; over 3300 nM against KDR kinase. In addition, the IC50 (with M-NFS-60 cells; in experiment [4] (setting [7])) was 10 to 100 nM each time.

The values are drawn from US9133183B2, “Imidazolidinones and analogs exhibiting anti-cancer and anti-proliferative activities” (Deciphera Pharmaceuticals, LLC, priority 2013, dated 2015).
